{"source": "patent US20070270393A1", "about": "“Methods and compositions for modulation of sleep cycle” (priority 2006, published 2007)", "key": {"subjects with insomnia": {"system": "subjects with insomnia", "test": "Polysomnogram measures, double-blinded placebo controlled study of 5 days mifepristone in insomnia", "format": "in vivo, human", "details": "for % REM, average / % S1, average / % S2, average / % S3, average / % S4, average / Arousal, average / NUAW, average / Rem Lat, average / Rem density, average / S3 Lat, average / SE (S2, S3, S4), average / SE (S3, S4), average / SPT, average / TST, average / WASO, average: Rx Ave (n = 5)"}, "[1]": {"system": "HPA axis activity (cortisol, ACTH) and melatonin in chronic insomnia subjects", "test": "Overnight melatonin (dim light), cortisol and ACTH levels in the insomnia study", "format": "in vivo, human", "details": "after 5 days treatment in the outpatient setting, FIG. 3"}, "[2]": {"details": "2 Wk Post Tx rel to Baseline, Tx Delta"}, "[3]": {"details": "2 Wk Post Tx rel to Baseline, Tx rel to Plac"}, "[4]": {"details": "Day 5 Tx rel to Baseline, Tx Delta"}, "[5]": {"details": "Day 5 Tx rel to Baseline, Tx rel to Plac"}}}
{"molecule": "CC#C[C@]1(O)CC[C@H]2[C@@H]3CCC4=CC(=O)CCC4=C3[C@@H](c3ccc(N(C)C)cc3)C[C@@]21C", "note": "[mifepristone, 17-beta-hydroxy-11-beta-(4-dimethyl-aminophenyl)-17-alpha-(1-propynyl)-estra-4,9-dien-3-one]", "values": [{"measurement": "% REM (percentage REM sleep)", "setting": "subjects with insomnia; [2]", "result": 1.63, "unit": "%"}, {"measurement": "% S1 (percentage stage 1 sleep)", "setting": "subjects with insomnia; [2]", "result": "−39.19", "unit": "%"}, {"measurement": "% S2 (percentage stage 2 sleep)", "setting": "subjects with insomnia; [2]", "result": "−2.68", "unit": "%"}, {"measurement": "% S3 (percentage stage 3 sleep)", "setting": "subjects with insomnia; [2]", "result": 1.09, "unit": "%"}, {"measurement": "% S4 (percentage stage 4 sleep)", "setting": "subjects with insomnia; [2]", "result": "−1.48", "unit": "%"}, {"measurement": "Arousal", "setting": "subjects with insomnia; [2]", "result": 5.2}, {"measurement": "NUAW (number of awakenings)", "setting": "subjects with insomnia; [2]", "result": 0}, {"measurement": "Rem Lat (minutes to first epoch of REM after sleep onset)", "setting": "subjects with insomnia; [2]", "result": -4, "unit": "min"}, {"measurement": "Rem p", "setting": "subjects with insomnia; [2]", "result": 1.972}, {"measurement": "S3 Lat (latency to onset of stage 3 sleep)", "setting": "subjects with insomnia; [2]", "result": -0.85, "unit": "min"}, {"measurement": "SEB (S2, S3, S4) (total combined minutes of stage 2, 3 and 4 per total sleep minutes)", "setting": "subjects with insomnia; [2]", "result": 2.57}, {"measurement": "SEC (S3, S4) (total combined minutes of stage 3, 4 per total sleep minutes)", "setting": "subjects with insomnia; [2]", "result": 1.19}, {"measurement": "SPT", "setting": "subjects with insomnia; [2]", "result": 28.1, "unit": "min"}, {"measurement": "TST (total combined minutes of sleep)", "setting": "subjects with insomnia; [2]", "result": 38.5, "unit": "min"}, {"measurement": "WASO (wake after sleep onset)", "setting": "subjects with insomnia; [2]", "result": -10.4, "unit": "min"}, {"measurement": "% REM (percentage REM sleep)", "setting": "subjects with insomnia; [3]", "result": 1.31, "unit": "%"}, {"measurement": "% S1 (percentage stage 1 sleep)", "setting": "subjects with insomnia; [3]", "result": "−0.01", "unit": "%"}, {"measurement": "% S2 (percentage stage 2 sleep)", "setting": "subjects with insomnia; [3]", "result": "−5.05", "unit": "%"}, {"measurement": "% S3 (percentage stage 3 sleep)", "setting": "subjects with insomnia; [3]", "result": 1.45, "unit": "%"}, {"measurement": "% S4 (percentage stage 4 sleep)", "setting": "subjects with insomnia; [3]", "result": "−0.98", "unit": "%"}, {"measurement": "Arousal", "setting": "subjects with insomnia; [3]", "result": "−3.7"}, {"measurement": "NUAW (number of awakenings)", "setting": "subjects with insomnia; [3]", "result": 1.5}, {"measurement": "Rem Lat (minutes to first epoch of REM after sleep onset)", "setting": "subjects with insomnia; [3]", "result": 39.5, "unit": "min"}, {"measurement": "Rem p", "setting": "subjects with insomnia; [3]", "result": 2.73}, {"measurement": "S3 Lat (latency to onset of stage 3 sleep)", "setting": "subjects with insomnia; [3]", "result": 23.1, "unit": "min"}, {"measurement": "SEB (S2, S3, S4) (total combined minutes of stage 2, 3 and 4 per total sleep minutes)", "setting": "subjects with insomnia; [3]", "result": "−1.34"}, {"measurement": "SEC (S3, S4) (total combined minutes of stage 3, 4 per total sleep minutes)", "setting": "subjects with insomnia; [3]", "result": 2.02}, {"measurement": "SPT", "setting": "subjects with insomnia; [3]", "result": 29.55, "unit": "min"}, {"measurement": "TST (total combined minutes of sleep)", "setting": "subjects with insomnia; [3]", "result": 21.65, "unit": "min"}, {"measurement": "WASO (wake after sleep onset)", "setting": "subjects with insomnia; [3]", "result": 7.85, "unit": "min"}, {"measurement": "% REM (percentage REM sleep)", "setting": "subjects with insomnia; [4]", "result": "−9.33", "unit": "%"}, {"measurement": "% S1 (percentage stage 1 sleep)", "setting": "subjects with insomnia; [4]", "result": "−38.34", "unit": "%"}, {"measurement": "% S2 (percentage stage 2 sleep)", "setting": "subjects with insomnia; [4]", "result": 6.44, "unit": "%"}, {"measurement": "% S3 (percentage stage 3 sleep)", "setting": "subjects with insomnia; [4]", "result": 0.76, "unit": "%"}, {"measurement": "% S4 (percentage stage 4 sleep)", "setting": "subjects with insomnia; [4]", "result": "−0.01", "unit": "%"}, {"measurement": "Arousal", "setting": "subjects with insomnia; [4]", "result": 0.9}, {"measurement": "NUAW (number of awakenings)", "setting": "subjects with insomnia; [4]", "result": 3.3}, {"measurement": "Rem Lat (minutes to first epoch of REM after sleep onset)", "setting": "subjects with insomnia; [4]", "result": 61.15, "unit": "min"}, {"measurement": "Rem p", "setting": "subjects with insomnia; [4]", "result": "−0.826"}, {"measurement": "S3 Lat (latency to onset of stage 3 sleep)", "setting": "subjects with insomnia; [4]", "result": 7.05, "unit": "min"}, {"measurement": "SEB (S2, S3, S4) (total combined minutes of stage 2, 3 and 4 per total sleep minutes)", "setting": "subjects with insomnia; [4]", "result": "−2.13"}, {"measurement": "SEC (S3, S4) (total combined minutes of stage 3, 4 per total sleep minutes)", "setting": "subjects with insomnia; [4]", "result": "−7.3"}, {"measurement": "SPT", "setting": "subjects with insomnia; [4]", "result": 28.69, "unit": "min"}, {"measurement": "TST (total combined minutes of sleep)", "setting": "subjects with insomnia; [4]", "result": 17.05, "unit": "min"}, {"measurement": "WASO (wake after sleep onset)", "setting": "subjects with insomnia; Day 5 Tx rel to Baseline, Tx Delta, 600 mg/day in the morning, 5 days", "result": 16.4, "unit": "min"}, {"measurement": "% REM (percentage REM sleep)", "setting": "subjects with insomnia; [5]", "result": "−9.69", "unit": "%"}, {"measurement": "% S1 (percentage stage 1 sleep)", "setting": "subjects with insomnia; [5]", "result": 1.76, "unit": "%"}, {"measurement": "% S2 (percentage stage 2 sleep)", "setting": "subjects with insomnia; [5]", "result": 3.9, "unit": "%"}, {"measurement": "% S3 (percentage stage 3 sleep)", "setting": "subjects with insomnia; [5]", "result": 0.71, "unit": "%"}, {"measurement": "% S4 (percentage stage 4 sleep)", "setting": "subjects with insomnia; [5]", "result": 0.42, "unit": "%"}, {"measurement": "Arousal", "setting": "subjects with insomnia; [5]", "result": "−3.8"}, {"measurement": "NUAW (number of awakenings)", "setting": "subjects with insomnia; [5]", "result": 5}, {"measurement": "Rem Lat (minutes to first epoch of REM after sleep onset)", "setting": "subjects with insomnia; [5]", "result": 99.6, "unit": "min"}, {"measurement": "Rem p", "setting": "subjects with insomnia; [5]", "result": 0.654}, {"measurement": "S3 Lat (latency to onset of stage 3 sleep)", "setting": "subjects with insomnia; [5]", "result": 19.35, "unit": "min"}, {"measurement": "SEB (S2, S3, S4) (total combined minutes of stage 2, 3 and 4 per total sleep minutes)", "setting": "subjects with insomnia; [5]", "result": "−6.85"}, {"measurement": "SEC (S3, S4) (total combined minutes of stage 3, 4 per total sleep minutes)", "setting": "subjects with insomnia; [5]", "result": "−7.45"}, {"measurement": "SPT", "setting": "subjects with insomnia; [5]", "result": 29.39, "unit": "min"}, {"measurement": "TST (total combined minutes of sleep)", "setting": "subjects with insomnia; [5]", "result": -3.75, "unit": "min"}, {"measurement": "WASO (wake after sleep onset)", "setting": "subjects with insomnia; [5]", "result": 37.85, "unit": "min"}, {"measurement": "% REM, average", "setting": "subjects with insomnia; T2", "result": 11.62, "unit": "%"}, {"measurement": "% S1, average", "setting": "subjects with insomnia; T2", "result": 15.48, "unit": "%"}, {"measurement": "% S2, average", "setting": "subjects with insomnia; T2", "result": 60.26, "unit": "%"}, {"measurement": "% S3, average", "setting": "subjects with insomnia; T2", "result": 7.63, "unit": "%"}, {"measurement": "% S4, average", "setting": "subjects with insomnia; T2", "result": 4.36, "unit": "%"}, {"measurement": "Arousal, average", "setting": "subjects with insomnia; T2", "result": 105.70}, {"measurement": "NUAW, average", "setting": "subjects with insomnia; T2", "result": 27.60}, {"measurement": "Rem Lat, average", "setting": "subjects with insomnia; T2", "result": 137.95, "unit": "min"}, {"measurement": "Rem density, average", "setting": "subjects with insomnia; T2", "result": 7.16}, {"measurement": "S3 Lat, average", "setting": "subjects with insomnia; T2", "result": 24.80, "unit": "min"}, {"measurement": "SE (S2, S3, S4), average", "setting": "subjects with insomnia; T2", "result": 83.34}, {"measurement": "SE (S3, S4), average", "setting": "subjects with insomnia; T2", "result": 24.94}, {"measurement": "SPT, average", "setting": "subjects with insomnia; T2", "result": 469.24, "unit": "min"}, {"measurement": "TST, average", "setting": "subjects with insomnia; T2", "result": 390.65, "unit": "min"}, {"measurement": "WASO, average", "setting": "subjects with insomnia; T2", "result": 83.35, "unit": "min"}, {"measurement": "% REM, average", "setting": "subjects with insomnia; T3", "result": 22.58, "unit": "%"}, {"measurement": "% S1, average", "setting": "subjects with insomnia; T3", "result": 14.63, "unit": "%"}, {"measurement": "% S2, average", "setting": "subjects with insomnia; T3", "result": 51.14, "unit": "%"}, {"measurement": "% S3, average", "setting": "subjects with insomnia; T3", "result": 7.96, "unit": "%"}, {"measurement": "% S4, average", "setting": "subjects with insomnia; T3", "result": 2.89, "unit": "%"}, {"measurement": "Arousal, average", "setting": "subjects with insomnia; T3", "result": 110.00}, {"measurement": "NUAW, average", "setting": "subjects with insomnia; T3", "result": 24.30}, {"measurement": "Rem Lat, average", "setting": "subjects with insomnia; T3", "result": 72.80, "unit": "min"}, {"measurement": "Rem density, average", "setting": "subjects with insomnia; T3", "result": 9.95}, {"measurement": "S3 Lat, average", "setting": "subjects with insomnia; T3", "result": 16.90, "unit": "min"}, {"measurement": "SE (S2, S3, S4), average", "setting": "subjects with insomnia; T3", "result": 88.04}, {"measurement": "SE (S3, S4), average", "setting": "subjects with insomnia; T3", "result": 33.43}, {"measurement": "SPT, average", "setting": "subjects with insomnia; T3", "result": 468.65, "unit": "min"}, {"measurement": "TST, average", "setting": "subjects with insomnia; T3", "result": 412.10, "unit": "min"}, {"measurement": "WASO, average", "setting": "subjects with insomnia; T3", "result": 56.55, "unit": "min"}, {"measurement": "total sleep time (TST), in words", "setting": "subjects with insomnia; at 2 weeks post treatment", "result": "increased"}, {"measurement": "REM latency (RL), in words", "setting": "subjects with insomnia; most acutely during active treatment", "result": "increased"}, {"measurement": "DLMO (time at which melatonin reaches 20 pg/ml)", "setting": "[1]", "result": "delay"}]}
